Measured values from ChEMBL document CHEMBL4392860, “Characterization of the substrate scope of an alcohol dehydrogenase commonly used as methanol dehydrogenase” (Bioorg Med Chem Lett, 2019).

What was measured:
Details in all cases: DSM 2334
[1] = system: Geobacillus stearothermophilus
Description: Substrate activity at Geobacillus stearothermophilus DSM 2334 ADH expressed in Escherichia coli BL21 (DE3) assessed as Kcat in 50 mM HEPES buffer at pH 7.5 at 23 degC by MTT dye based Lineweaver-Burk plot analysis

[2] = system: Geobacillus stearothermophilus; remark: listed apart in the source
Description: Substrate activity at Geobacillus stearothermophilus DSM 2334 ADH expressed in Escherichia coli BL21 (DE3) assessed as Km in 50 mM HEPES buffer at pH 7.5 at 23 degC by MTT dye based Lineweaver-Burk plot analysis

[3] = system: Geobacillus stearothermophilus; remark: listed apart in the source
Description: Substrate activity at Geobacillus stearothermophilus DSM 2334 ADH expressed in Escherichia coli BL21 (DE3) assessed as Kcat/Km ratio in 50 mM HEPES buffer at pH 7.5 at 23 degC by MTT dye based Lineweaver-Burk plot analysis

SMILES	kcat [1] [s⁻¹]	Km [2] [mM]	kcat/Km [3] [M⁻¹ s⁻¹]
OCCCO	0.041	23.6	1.71
CCCCO	0.004	2.45	1.67
CO	0.013	–	0.044

Further lines, results first:

kcat [1] [s⁻¹]	Km [2] [mM]	kcat/Km [3] [M⁻¹ s⁻¹]	SMILES
0.019	2.95	6.26	CCO
0.094	23.8	3.96	CCC(C)O (configuration not stated)
0.019	39.8	0.46	CCCO
0.076	1.26	60.3	CC(C)O
0.026	–	0.046	CC(C)(C)O
